# Like-named read-outs stand apart in the source and are kept apart here.
# Assays:
# MDA-MB-435 = experiment: SRB growth screen, breast cancer MDA-MB-435; format: cell-based
# SR = experiment: SRB growth screen, leukemia SR; conditions: Homo sapiens, 48 h; for CC50: read-out: Log10 LC50 (converted)
# M14 = experiment: SRB growth screen, melanoma M14; conditions: Homo sapiens, M14, 48 h; for CC50: read-out: Log10 LC50 (converted)
# K-562 = experiment: SRB growth screen, leukemia K-562; conditions: Homo sapiens, K562, 48 h; for CC50: read-out: Log10 LC50 (converted); for IC (TGI): read-out: Log10 TGI
# MOLT-4 = experiment: SRB growth screen, leukemia MOLT-4; conditions: Homo sapiens, MOLT-4, 48 h; for CC50: read-out: Log10 LC50 (converted); for IC (TGI): read-out: Log10 TGI
# CCRF-CEM = experiment: SRB growth screen, leukemia CCRF-CEM; conditions: Homo sapiens
# HT29 = experiment: SRB growth screen, colon cancer HT29; conditions: Homo sapiens, HT-29, 48 h; for GI50: read-out: Log10 GI50 (converted); for CC50: read-out: Log10 LC50 (converted)
# LOX-IMVI = experiment: SRB growth screen, melanoma LOX-IMVI; conditions: Homo sapiens, 48 h; for CC50: read-out: Log10 LC50 (converted); for IC (TGI): read-out: Log10 TGI
# SK-MEL-2 = experiment: SRB growth screen, melanoma SK-MEL-2; conditions: Homo sapiens, SK-MEL-2, 48 h; for CC50: read-out: Log10 LC50 (converted)
# HL-60(TB) = experiment: SRB growth screen, leukemia HL-60(TB); conditions: Homo sapiens, HL-60, 48 h; for CC50: read-out: Log10 LC50 (converted); for IC (TGI): read-out: Log10 TGI
# A498 = experiment: SRB growth screen, renal cancer A498; conditions: Homo sapiens, A498, 48 h; for CC50: read-out: Log10 LC50 (converted)
# MCF7 = experiment: SRB growth screen, breast cancer MCF7; conditions: Homo sapiens, MCF7, 48 h; for CC50: read-out: Log10 LC50 (converted)
# HCT-15 = experiment: SRB growth screen, colon cancer HCT-15; conditions: Homo sapiens, HCT-15, 48 h; for GI50: read-out: Log10 GI50 (converted); for CC50: read-out: Log10 LC50 (converted); for IC (TGI): read-out: Log10 TGI
# T-47D = experiment: SRB growth screen, breast cancer T-47D; conditions: Homo sapiens, T47D, 48 h; for GI50: read-out: Log10 GI50 (converted); for CC50: read-out: Log10 LC50 (converted)
# PC-3 = experiment: SRB growth screen, prostate cancer PC-3; conditions: Homo sapiens, PC-3, 48 h; for CC50: read-out: Log10 LC50 (converted); for IC (TGI): read-out: Log10 TGI
# BT-549 = experiment: SRB growth screen, breast cancer BT-549; conditions: Homo sapiens, BT-549, 48 h; for GI50: read-out: Log10 GI50 (converted); for CC50: read-out: Log10 LC50 (converted); for IC (TGI): read-out: Log10 TGI
# COLO 205 = experiment: SRB growth screen, colon cancer COLO 205; conditions: Homo sapiens, COLO 205, 48 h; for CC50: read-out: Log10 LC50 (converted)
# OVCAR-3 = experiment: SRB growth screen, ovarian cancer OVCAR-3; conditions: Homo sapiens, OVCAR-3, 48 h; for CC50: read-out: Log10 LC50 (converted); for IC (TGI): read-out: Log10 TGI
# OVCAR-4 = experiment: SRB growth screen, ovarian cancer OVCAR-4; conditions: Homo sapiens, OVCAR-4, 48 h; for GI50: read-out: Log10 GI50 (converted); for CC50: read-out: Log10 LC50 (converted); for IC (TGI): read-out: Log10 TGI
# OVCAR-8 = experiment: SRB growth screen, ovarian cancer OVCAR-8; conditions: Homo sapiens, OVCAR-8, 48 h; for CC50: read-out: Log10 LC50 (converted)
# DU-145 = experiment: SRB growth screen, prostate cancer DU-145; conditions: Homo sapiens, DU-145, 48 h; for CC50: read-out: Log10 LC50 (converted); for IC (TGI): read-out: Log10 TGI
# MDA-MB-231/ATCC = experiment: SRB growth screen, breast cancer MDA-MB-231/ATCC; conditions: Homo sapiens, MDA-MB-231, 48 h; for CC50: read-out: Log10 LC50 (converted)
# NCI-H460 = conditions: Homo sapiens, NCI-H460, 48 h; for CC50: read-out: Log10 LC50 (converted)
# NCI-H522 = conditions: Homo sapiens, NCI-H522, 48 h; for GI50: read-out: Log10 GI50 (converted); for IC (TGI): read-out: Log10 TGI
# [1] = read-out: Log10 GI50 (converted)
# [2] = 48 h, read-out: Log10 LC50 (converted)
# [3] = read-out: concentration considered cytostasis (percentage growth 0)
# [4] = read-out: concentration necessary to achieve primary growth inhibition (PG +50)
# [5] = read-out: cytotoxicity concentration (percentage growth -50)
smiles,measurement,setting,value
"CC(=O)O[C@H]1C(=O)[C@@]2(C)[C@H]([C@H](OC(=O)c3ccccc3)[C@]3(O)C[C@H](OC(=O)[C@H](O)[C@@H](NC(=O)C4(C)OC4C)c4ccccc4)C(C)=C1C3(C)C)[C@]1(OC(C)=O)CO[C@@H]1C[C@@H]2O (stereo partly shown) [Ceph-epoxide, cephalomannine epoxide]",GI50,"MDA-MB-435; Homo sapiens, MDA-MB-435, 48 h; read-out: Log10 GI50 (converted)",< 10 nM
same,IC (TGI),"MDA-MB-435; Homo sapiens, MDA-MB-435, 48 h; read-out: Log10 TGI",< 0.01 µM
same,GI50,SR; [1],< 0.01 µM
same,CC50,SR,> 100 µM
same,GI50,M14; [1],< 0.01 µM
same,CC50,M14,> 100 µM
same,GI50,K-562; [1],< 0.01 µM
same,CC50,K-562,> 100 µM
same,IC (TGI),K-562,> 100 µM
same,GI50,MOLT-4; [1],< 0.01 µM
same,CC50,MOLT-4,> 100 µM
same,IC (TGI),MOLT-4,> 100 µM
same,GI50,"CCRF-CEM; 48 h, read-out: Log10 GI50 (converted)",< 0.01 µM
same,CC50,CCRF-CEM; [2],> 100 µM
same,IC (TGI),"CCRF-CEM; 48 h, read-out: Log10 TGI",2.51 µM
same,IC (TGI),CCRF-CEM; [3],2.51 µM
same,IC50,CCRF-CEM; [4],< 10 nM
same,CC50,CCRF-CEM; [5],> 100 µM
same,GI50,HT29,< 10 nM
same,CC50,HT29,> 100 µM
same,IC (TGI),HT29; read-out: Log10 TGI,0.115 µM
same,GI50,LOX-IMVI; [1],< 0.01 µM
same,CC50,LOX-IMVI,> 100 µM
same,IC (TGI),LOX-IMVI,21.4 µM
same,GI50,SK-MEL-2; [1],< 0.01 µM
same,CC50,SK-MEL-2,> 100 µM
same,GI50,HL-60(TB); [1],< 0.01 µM
same,CC50,HL-60(TB),> 100 µM
same,IC (TGI),HL-60(TB),< 0.01 µM
same,GI50,A498; [1],0.316 µM
same,CC50,A498,> 100 µM
same,IC (TGI),A498; read-out: Log10 TGI,> 100 µM
same,GI50,MCF7; [1],< 0.01 µM
same,CC50,MCF7,> 100 µM
same,IC (TGI),MCF7; read-out: Log10 TGI,> 100 µM
same,GI50,HCT-15,0.603 µM
same,CC50,HCT-15,> 100 µM
same,IC (TGI),HCT-15,> 100 µM
same,GI50,T-47D,15.5 µM
same,CC50,T-47D,> 100 µM
same,IC (TGI),T-47D; read-out: Log10 TGI,> 100 µM
same,GI50,PC-3; [1],0.0112 µM
same,CC50,PC-3,> 100 µM
same,IC (TGI),PC-3,> 100 µM
same,GI50,BT-549,0.01 µM
same,CC50,BT-549,< 100 µM
same,IC (TGI),BT-549,0.0977 µM
same,GI50,COLO 205; [1],< 0.01 µM
same,CC50,COLO 205,0.603 µM
same,IC (TGI),COLO 205; read-out: Log10 TGI,0.0269 µM
same,GI50,OVCAR-3; [1],< 0.01 µM
same,CC50,OVCAR-3,> 100 µM
same,IC (TGI),OVCAR-3,0.0182 µM
same,GI50,OVCAR-4,3.89 µM
same,CC50,OVCAR-4,> 100 µM
same,IC (TGI),OVCAR-4,> 100 µM
same,CC50,OVCAR-8,> 100 µM
same,IC (TGI),OVCAR-8; read-out: Log10 TGI,> 100 µM
same,GI50,DU-145; [1],0.0263 µM
same,CC50,DU-145,> 100 µM
same,IC (TGI),DU-145,0.145 µM
same,GI50,MDA-MB-231/ATCC; [1],0.0182 µM
same,CC50,MDA-MB-231/ATCC,> 100 µM
same,GI50,NCI-H460; [1],< 0.01 µM
same,CC50,NCI-H460,> 100 µM
same,IC (TGI),NCI-H460; read-out: Log10 TGI,> 100 µM
same,GI50,NCI-H522,< 10 nM
same,IC (TGI),NCI-H522,33.1 nM
"CC(=O)O[C@H]1C(=O)[C@@]2(C)[C@H]([C@H](OC(=O)c3ccccc3)[C@]3(O)C[C@H](OC(=O)[C@H](O)[C@@H](NC(=O)c4ccccc4)c4ccccc4)C(C)=C1C3(C)C)[C@]1(OC(C)=O)CO[C@@H]1C[C@@H]2O [Paclitaxel, paclitaxel, reference compound]",GI50,"MDA-MB-435; Homo sapiens, MDA-MB-435, 48 h, read-out: Log10 GI50 (converted)",< 0.0001 nM
same,CC50,SR,> 100 µM
same,IC (TGI),SR; read-out: Log10 TGI,> 100 µM
same,CC50,M14,74.1 µM
same,IC (TGI),M14; read-out: Log10 TGI,24 µM
same,CC50,K-562,> 100 µM
same,IC (TGI),K-562,> 100 µM
same,CC50,MOLT-4,> 100 µM
same,IC (TGI),MOLT-4,> 100 µM
same,CC50,CCRF-CEM; [2],> 100 µM
same,IC (TGI),"CCRF-CEM; 48 h, read-out: Log10 TGI",> 100 µM
same,IC50,CCRF-CEM; read-out: concentration at which primary growth inhibition occurs (PG +50),0.00245 nM
same,IC (TGI),CCRF-CEM; [3],> 100 µM
same,IC50,CCRF-CEM; [4],< 10 nM
same,CC50,CCRF-CEM; [5],> 100 µM
same,GI50,HT29,< 0.0001 nM
same,CC50,HT29,40.7 µM
same,CC50,LOX-IMVI,> 70.8 µM
same,IC (TGI),LOX-IMVI,22.4 µM
same,CC50,SK-MEL-2,> 100 µM
same,CC50,HL-60(TB),> 100 µM
same,IC (TGI),HL-60(TB),> 29.5 µM
same,CC50,A498,74.1 µM
same,CC50,MCF7,> 100 µM
same,GI50,HCT-15,0.427 µM
same,CC50,HCT-15,> 100 µM
same,IC (TGI),HCT-15,> 100 µM
same,GI50,T-47D,0.000155 µM
same,CC50,T-47D,> 100 µM
same,CC50,PC-3,> 100 µM
same,IC (TGI),PC-3,> 100 µM
same,GI50,BT-549,0.00049 µM
same,CC50,BT-549,> 100 µM
same,IC (TGI),BT-549,0.479 µM
same,CC50,COLO 205,> 38.9 µM
same,CC50,OVCAR-3,> 100 µM
same,IC (TGI),OVCAR-3,28.2 µM
same,GI50,OVCAR-4,10 µM
same,CC50,OVCAR-4,> 100 µM
same,IC (TGI),OVCAR-4,64.6 µM
same,GI50,OVCAR-8; [1],0.0178 nM
same,CC50,OVCAR-8,> 100 µM
same,CC50,DU-145,> 100 µM
same,IC (TGI),DU-145,> 100 µM
same,CC50,MDA-MB-231/ATCC,51.3 µM
same,IC (TGI),MDA-MB-231/ATCC; read-out: Log10 TGI,14.5 µM
same,CC50,NCI-H460,> 100 µM
same,GI50,NCI-H522,< 0.0001 nM
same,CC50,NCI-H522; read-out: Log10 LC50 (converted),> 100 µM
same,IC (TGI),NCI-H522,0.00631 nM
